What was measured:
S. aureus (ATCC # 6538) = assay: Time kill activity (ASTM E 2315), log reduction; type: cell-based; settings: 30 seconds
Experimental: (§1) In this test, a diluted aliquot of the composition is brought into contact with a known population of test bacteria for a specified time period at a specified temperature. The test composition is neutralized at the end of the time period, which arrests the antimicrobial activity of the composition. The percent or, alternatively, log reduction from the original bacteria population is calculated. In general, the time kill method is known to those skilled in the art. […] The choice of which concentration to use is at the discretion of the investigator, and suitable concentrations are readily determined by those skilled in the art. All testing if performed in triplicate, the results are combined, and the average log reduction is reported. • (c) The choice of contact time period also is at the discretion of the investigator. Any contact time period can be chosen. Typical contact times range from 10 second to 5 minutes, with 30 seconds and 1 minute being typical contact times. The contact temperature also can be any temperature, typically room temperature, or about 25 degrees Celsius. • (d) The microbial suspension, or test inoculum, is prepared by growing a microbial culture on any appropriate solid media (e.g., agar). The microbial population then is washed from the agar with sterile physiological saline and the population of the microbial suspension is adjusted to about 10^8 colony forming units per ml (cfu/ml). • (e) The table below lists the test microbial cultures used in the following tests and includes the name of the bacteria, the ATCC (American Type Culture Collection) identification number, and the abbreviation for the name of the organism used hereafter.
(§2) The log reduction is calculated using the formula: Log reduction=log10(numbers control)−log10(test sample survivors). Foam Height Determination

E. coli (ATCC # 112229) = assay: Time kill activity (ASTM E 2315), log reduction; type: cell-based, Escherichia coli; settings: 30 seconds
Experimental: as §1, §2

[1] = active at 0.65% w/w in the composition of formulation example 15, pH 6.25
[2] = active at 2% w/w in the composition of formulation example 15, pH 6.25
[3] = active at 4% w/w in the composition of formulation example 15, pH 6.25

Molecule	S. Aureus log reduction (S. aureus (ATCC # 6538); [1])	E. coli log reduction (E. coli (ATCC # 112229); [1])	S. Aureus log reduction (S. aureus (ATCC # 6538); [2])	S. Aureus log reduction (S. aureus (ATCC # 6538); [3])	E. coli log reduction (E. coli (ATCC # 112229); [2])	E. coli log reduction (E. coli (ATCC # 112229); [3])
CC(C)(C)CC(C)(C)c1ccc(OCCOCC[N+](C)(C)Cc2ccccc2)cc1 [Benzethonium Chloride]	>5.39	>5.73				
N=C(NCCCCCCNC(=N)NC(=N)Nc1ccc(Cl)cc1)NC(=N)Nc1ccc(Cl)cc1.O=C(O)[C@H](O)[C@@H](O)[C@H](O)[C@H](O)CO.O=C(O)[C@H](O)[C@@H](O)[C@H](O)[C@H](O)CO [Chlorohexidine Gluconate]			>5.39	>5.39	>5.73	>5.73
CCCCCCCCCC[N+](C)(C)CCCCCCCCCC.[Cl-] [Didecyl Dimethyl Ammonium Chloride]	>5.39	>5.73				
Polyhexamethylene Biguanide	3.10	>5.73				
